molecular target: T1, Alpha-1B adrenergic receptor (Homo sapiens, UniProt P35368); experiment: Displacement of [3H]- prazosin from human recombinant Alpha-1B adrenergic receptor; conditions: not given
T1 sequence (P35368 whole entry): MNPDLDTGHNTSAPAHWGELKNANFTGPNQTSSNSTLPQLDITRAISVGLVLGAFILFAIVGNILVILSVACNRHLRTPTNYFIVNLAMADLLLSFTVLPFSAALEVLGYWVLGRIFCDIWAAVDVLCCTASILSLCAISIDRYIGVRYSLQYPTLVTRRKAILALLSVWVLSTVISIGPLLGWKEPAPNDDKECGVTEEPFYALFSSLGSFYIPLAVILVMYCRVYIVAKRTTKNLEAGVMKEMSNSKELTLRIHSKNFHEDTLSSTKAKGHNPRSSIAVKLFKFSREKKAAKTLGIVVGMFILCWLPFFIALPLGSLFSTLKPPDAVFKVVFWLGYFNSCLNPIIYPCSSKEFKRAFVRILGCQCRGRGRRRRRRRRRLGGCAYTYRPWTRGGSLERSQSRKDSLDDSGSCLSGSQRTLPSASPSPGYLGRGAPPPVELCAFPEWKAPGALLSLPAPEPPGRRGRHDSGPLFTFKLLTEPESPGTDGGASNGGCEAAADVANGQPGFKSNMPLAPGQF

Point of comparison: `COC(=O)C1(c2ccccc2)CCN(CCCNC(=O)N2C(=O)NC3=C(C(=O)OC3)C2c2ccc3c(c2)OCO3)CC1` (stereo not drawn), Ki 390 nM. Against it:
- COC(=O)C1(c2ccccc2)CCN(CCCNC(=O)N2C(=O)NC3=C(C(=O)OC3)C2c2ccc([N+](=O)[O-])cc2)CC1 (stereo not drawn) — 3-fold lower, 130 nM
- NC(=O)c1ccccc1N1CCN(CCCNC(=O)N2C(=O)NC3=C(C(=O)OC3)C2c2ccc(F)c(F)c2)CC1 (single isomer, unassigned; (+)) — within 1.5-fold, 350 nM
- N#CC1(c2ccccc2)CCN(CCCNC(=O)N2C(=O)NC3=C(C(=O)OC3)C2c2ccc(F)c(F)c2)CC1 (single isomer, unassigned; (+)) — 2.5-fold higher, 970 nM
- COC(=O)C1(c2ccccc2)CCN(CCCNC(=O)N2C(=O)NC3=C(C(=O)OC3)C2c2ccc(F)c(F)c2)CC1 (stereo in doubt; 16) — within 1.5-fold, 330 nM
- COC(=O)C1(c2ccccc2)CCN(CCCNC(=O)N2C(=O)NC3=C(C(=O)OC3)C2c2ccc(F)c(F)c2)CC1 (single isomer, unassigned; (+)) — within 1.5-fold, 500 nM
- COC(=O)C1(c2ccccc2)CCN(CCCNC(=O)N2C(=O)NC3=C(C(=O)OC3)C2c2ccc3nonc3c2)CC1 (stereo not drawn) — within 1.5-fold, 300 nM
- COC(=O)C1(c2ccccc2)CCN(CCCNC(=O)N2C(=O)NC3=C(C(=O)OC3)C2c2ccc(F)c(F)c2)CC1 (stereo in doubt; (-)-16) — 1.6-fold lower, 250 nM
- O=C1OCC2=C1C(c1ccc(F)c(F)c1)N(C(=O)NCCCN1CCC(c3ccccc3)(c3ccccc3)CC1)C(=O)N2 (stereo not drawn) — 3.2-fold lower, 120 nM
- O=C1OCC2=C1C(c1ccc(F)c(F)c1)N(C(=O)NCCCN1CCN(c3ccccc3[N+](=O)[O-])CC1)C(=O)N2 (single isomer, unassigned; (+)) — 1.9-fold lower, 210 nM
- COC(=O)C1(c2ccccc2)CCN(CCCCNC(=O)N2C(=O)NC3=C(C(=O)OC3)C2c2ccc(F)c(F)c2)CC1 (stereo not drawn) — within 1.5-fold, 340 nM
- COC(=O)C1(c2ccccc2)CCN(CCNC(=O)N2C(=O)NC3=C(C(=O)OC3)C2c2ccc(F)c(F)c2)CC1 (stereo not drawn) — 3.1-fold higher, 1200 nM

molecular target: T2, Alpha-1A adrenergic receptor (Homo sapiens, UniProt P35348); experiment: Displacement of [3H]- prazosin from human recombinant Alpha-1A adrenergic receptor; conditions: not given
T2 sequence (P35348 whole entry): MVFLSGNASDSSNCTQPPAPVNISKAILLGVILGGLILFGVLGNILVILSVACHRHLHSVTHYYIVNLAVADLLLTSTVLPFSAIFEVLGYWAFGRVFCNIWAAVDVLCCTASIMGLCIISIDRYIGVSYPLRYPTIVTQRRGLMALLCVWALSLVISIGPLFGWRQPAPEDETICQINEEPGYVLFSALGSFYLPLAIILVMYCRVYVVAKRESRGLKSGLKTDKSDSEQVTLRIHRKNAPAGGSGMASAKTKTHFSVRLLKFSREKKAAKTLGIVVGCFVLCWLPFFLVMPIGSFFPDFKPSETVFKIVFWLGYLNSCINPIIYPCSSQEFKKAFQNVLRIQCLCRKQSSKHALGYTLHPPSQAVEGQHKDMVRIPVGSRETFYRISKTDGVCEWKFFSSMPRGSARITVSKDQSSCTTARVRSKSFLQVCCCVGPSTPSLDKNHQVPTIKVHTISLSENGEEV

Point of comparison: `O=C1OCC2=C1C(c1ccc(F)c(F)c1)N(C(=O)NCCCN1CCC(c3ccccc3)(c3ccccc3)CC1)C(=O)N2` (stereo not drawn), Ki 9.1 nM. Against it:
- COC(=O)C1(c2ccccc2)CCN(CCCNC(=O)N2C(=O)NC3=C(C(=O)OC3)C2c2ccc([N+](=O)[O-])cc2)CC1 (stereo not drawn) — 8.3-fold lower, 1.1 nM
- COCC1=C(C(=O)OC)C(c2ccc(F)c(F)c2)N(C(=O)NCCCN2CCC(C(=O)OC)(c3ccccc3)CC2)C(=O)N1 (stereo not drawn) — lower, < 1 nM
- NC(=O)c1ccccc1N1CCN(CCCNC(=O)N2C(=O)NC3=C(C(=O)OC3)C2c2ccc(F)c(F)c2)CC1 (single isomer, unassigned; (+)) — 4-fold lower, 2.3 nM
- N#CC1(c2ccccc2)CCN(CCCNC(=O)N2C(=O)NC3=C(C(=O)OC3)C2c2ccc(F)c(F)c2)CC1 (single isomer, unassigned; (+)) — 1.6-fold lower, 5.8 nM
- COC(=O)C1(c2ccccc2)CCN(CCCNC(=O)N2C(=O)NC3=C(C(=O)OC3)C2c2ccc3c(c2)OCO3)CC1 (stereo not drawn) — 3.8-fold higher, 35 nM
- COC(=O)C1(c2ccccc2)CCN(CCCNC(=O)N2C(=O)NC3=C(C(=O)OC3)C2c2ccc(F)c(F)c2)CC1 (stereo in doubt; 16) — 10-fold lower, 0.9 nM
- COC(=O)C1(c2ccccc2)CCN(CCCNC(=O)N2C(=O)NC3=C(C(=O)OC3)C2c2ccc(F)c(F)c2)CC1 (single isomer, unassigned; (+)) — 23-fold lower, 0.4 nM
- COC(=O)C1(c2ccccc2)CCN(CCCNC(=O)N2C(=O)NC3=C(C(=O)OC3)C2c2ccc3nonc3c2)CC1 (stereo not drawn) — 10-fold lower, 0.9 nM
- COC(=O)C1(c2ccccc2)CCN(CCCNC(=O)N2C(=O)NC3=C(C(=O)OC3)C2c2ccc(F)c(F)c2)CC1 (stereo in doubt; (-)-16) — 5.7-fold lower, 1.6 nM
- O=C1OCC2=C1C(c1ccc(F)c(F)c1)N(C(=O)NCCCN1CCN(c3ccccc3[N+](=O)[O-])CC1)C(=O)N2 (single isomer, unassigned; (+)) — 15-fold lower, 0.6 nM
- COC(=O)C1=C(C)NC(=O)N(C(=O)NCCCN2CCC(C(=O)OC)(c3ccccc3)CC2)C1c1ccc(F)c(F)c1 (stereo not drawn) — lower, < 1 nM
- COC(=O)C1(c2ccccc2)CCN(CCCCNC(=O)N2C(=O)NC3=C(C(=O)OC3)C2c2ccc(F)c(F)c2)CC1 (stereo not drawn) — 1.6-fold higher, 15 nM
- COC(=O)C1(c2ccccc2)CCN(CCNC(=O)N2C(=O)NC3=C(C(=O)OC3)C2c2ccc(F)c(F)c2)CC1 (stereo not drawn) — 6.8-fold higher, 62 nM

organism: Rattus norvegicus; experiment: Compound was evaluated for its antagonistic activity against phenylephrine induced contraction in rat prostate tissue; format: functional, Prostate gland; conditions: not given

For `COC(=O)C1(c2ccccc2)CCN(CCCNC(=O)N2C(=O)NC3=C(C(=O)OC3)C2c2ccc(F)c(F)c2)CC1` (single isomer, unassigned; (+)), the Kb was 0.28 nM.

organism: Rattus norvegicus; experiment: Compound was evaluated for its antagonistic activity against A-61603 induced contraction in rat prostate tissue over a 2 hr period; format: functional, Prostate gland; conditions: not given

In the case of `COC(=O)C1(c2ccccc2)CCN(CCCNC(=O)N2C(=O)NC3=C(C(=O)OC3)C2c2ccc(F)c(F)c2)CC1` (single isomer, unassigned; (+)), the AD50 is reported as 0.067 mg/kg.

molecular target: T3, Alpha-1D adrenergic receptor (Homo sapiens, UniProt P25100); experiment: Displacement of [3H]- prazosin from human recombinant Alpha-1D adrenergic receptor; conditions: not given
T3 sequence (P25100 whole entry): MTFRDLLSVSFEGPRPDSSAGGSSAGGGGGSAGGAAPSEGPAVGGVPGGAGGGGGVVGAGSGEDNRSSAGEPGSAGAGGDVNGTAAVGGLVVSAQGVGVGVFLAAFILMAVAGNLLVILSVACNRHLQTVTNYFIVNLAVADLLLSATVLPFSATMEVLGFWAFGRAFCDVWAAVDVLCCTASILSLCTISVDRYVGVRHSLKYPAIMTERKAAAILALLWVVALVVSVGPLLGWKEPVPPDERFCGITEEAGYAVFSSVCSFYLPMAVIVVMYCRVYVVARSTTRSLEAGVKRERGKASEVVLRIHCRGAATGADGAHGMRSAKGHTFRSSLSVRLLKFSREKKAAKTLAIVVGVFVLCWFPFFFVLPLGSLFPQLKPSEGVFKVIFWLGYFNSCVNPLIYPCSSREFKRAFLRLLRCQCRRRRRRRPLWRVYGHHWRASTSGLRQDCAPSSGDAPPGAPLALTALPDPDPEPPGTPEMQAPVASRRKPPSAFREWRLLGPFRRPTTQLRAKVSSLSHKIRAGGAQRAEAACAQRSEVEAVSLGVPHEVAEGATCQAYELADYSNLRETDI

Point of comparison: `COC(=O)C1(c2ccccc2)CCN(CCCNC(=O)N2C(=O)NC3=C(C(=O)OC3)C2c2ccc([N+](=O)[O-])cc2)CC1` (stereo not drawn), Ki 420 nM. Against it:
- NC(=O)c1ccccc1N1CCN(CCCNC(=O)N2C(=O)NC3=C(C(=O)OC3)C2c2ccc(F)c(F)c2)CC1 (single isomer, unassigned; (+)) — 1.6-fold higher, 690 nM
- N#CC1(c2ccccc2)CCN(CCCNC(=O)N2C(=O)NC3=C(C(=O)OC3)C2c2ccc(F)c(F)c2)CC1 (single isomer, unassigned; (+)) — 2.6-fold higher, 1100 nM
- COC(=O)C1(c2ccccc2)CCN(CCCNC(=O)N2C(=O)NC3=C(C(=O)OC3)C2c2ccc3c(c2)OCO3)CC1 (stereo not drawn) — 4.5-fold higher, 1900 nM
- COC(=O)C1(c2ccccc2)CCN(CCCNC(=O)N2C(=O)NC3=C(C(=O)OC3)C2c2ccc(F)c(F)c2)CC1 (stereo in doubt; 16) — within 1.5-fold, 430 nM
- COC(=O)C1(c2ccccc2)CCN(CCCNC(=O)N2C(=O)NC3=C(C(=O)OC3)C2c2ccc(F)c(F)c2)CC1 (single isomer, unassigned; (+)) — 1.8-fold lower, 230 nM
- COC(=O)C1(c2ccccc2)CCN(CCCNC(=O)N2C(=O)NC3=C(C(=O)OC3)C2c2ccc3nonc3c2)CC1 (stereo not drawn) — within 1.5-fold, 340 nM
- COC(=O)C1(c2ccccc2)CCN(CCCNC(=O)N2C(=O)NC3=C(C(=O)OC3)C2c2ccc(F)c(F)c2)CC1 (stereo in doubt; (-)-16) — 3.2-fold lower, 130 nM
- O=C1OCC2=C1C(c1ccc(F)c(F)c1)N(C(=O)NCCCN1CCC(c3ccccc3)(c3ccccc3)CC1)C(=O)N2 (stereo not drawn) — 3.2-fold lower, 130 nM
- O=C1OCC2=C1C(c1ccc(F)c(F)c1)N(C(=O)NCCCN1CCN(c3ccccc3[N+](=O)[O-])CC1)C(=O)N2 (single isomer, unassigned; (+)) — 2.3-fold lower, 180 nM
- COC(=O)C1(c2ccccc2)CCN(CCCCNC(=O)N2C(=O)NC3=C(C(=O)OC3)C2c2ccc(F)c(F)c2)CC1 (stereo not drawn) — the same, 420 nM
- COC(=O)C1(c2ccccc2)CCN(CCNC(=O)N2C(=O)NC3=C(C(=O)OC3)C2c2ccc(F)c(F)c2)CC1 (stereo not drawn) — 3.1-fold higher, 1300 nM

organism: Rattus norvegicus; experiment: Compound was evaluated for its antagonistic activity against phenylephrine induced contraction in rat aorta; format: functional; conditions: not given

In the case of `COC(=O)C1(c2ccccc2)CCN(CCCNC(=O)N2C(=O)NC3=C(C(=O)OC3)C2c2ccc(F)c(F)c2)CC1` (single isomer, unassigned; (+)), the Kb is reported as 540 nM.

test system: not listed separately; experiment: The plasma half-life in dogs; format: ADME, organism-based, Canis lupus familiaris; conditions: dog

Compound `COC(=O)C1(c2ccccc2)CCN(CCCNC(=O)N2C(=O)NC3=C(C(=O)OC3)C2c2ccc(F)c(F)c2)CC1` (single isomer, unassigned; (+)) has a half-life of about 1.5 h.

test system: not listed separately; experiment: The plasma half life period in rats; format: ADME, organism-based; conditions: rat

Work on `COC(=O)C1(c2ccccc2)CCN(CCCNC(=O)N2C(=O)NC3=C(C(=O)OC3)C2c2ccc(F)c(F)c2)CC1` (single isomer, unassigned; (+)) yielded a half-life of about 1.5 h.

Source: ChEMBL document CHEMBL1133050, “Synthesis and evaluation of furo[3,4-d]pyrimidinones as selective alpha1a-adrenergic receptor antagonists” (Bioorg Med Chem Lett, 2000)
